Consider 9 molecules from ChEMBL document CHEMBL1201862, “PubChem BioAssay data set” (2004).

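48-hour exposure; five concentrations; linearly interpolated endpoints. GI50 = concentration required for 50% inhibition of growth.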 Calls of active or inactive are those of the source. Cut-off read from the data, not from the text of the source: active = GI50 up to about 1.1 µM and inactive = higher.

Among the test systems are MOLT-4; CCRF-CEM; NCI/ADR-RES; SN12C; COLO 205; KM12; SF-268; HOP-62; UACC-257; ACHN; NCI-H460; OVCAR-8; SF-295; OVCAR-3; HCT-15; OVCAR-5; SK-MEL-2; LOX IMVI.
Holding throughout (assay): growth of human tumour cells (NCI), 48 h

Consider `CCN(CC)CCn1c(C(C)(C)C)nc2ccccc21`, for which the GI50 in the assay with MOLT-4, with CCRF-CEM, with NCI/ADR-RES, in the assay with SN12C, in the assay with COLO 205 and with KM12 was > 100 µM (inactive) each time. For the same molecule, the GI50 with SF-268, with HOP-62, with UACC-257, with ACHN, with NCI-H460 and in the assay on OVCAR-8 was > 100 µM (inactive) throughout. In addition, the GI50 in the assay on SF-295 was > 100 µM (inactive); in the assay with OVCAR-3, > 100 µM (inactive); in the assay with HCT-15, over 100 µM; with OVCAR-5, > 100 µM (inactive).

As for `CCN(CCCl)CCNc1c2ccccc2nc2ccc(OC)cc12`, the GI50 was 0.0426 µM (active) in the assay on MOLT-4; 0.104 µM (active) in the assay on CCRF-CEM; 1.35 µM (inactive) in the assay with NCI/ADR-RES; 0.548 µM (active) with SN12C; 1.03 µM (active) with SK-MEL-2; 0.136 µM (active) in the assay with COLO 205. Further, the GI50 in the assay on KM12 was 0.603 µM (active); with SF-268, 0.454 µM (active); in the assay on HOP-62, 1.12 µM (active); in the assay on UACC-257, 1.52 µM (inactive); in the assay on ACHN, 0.127 µM (active); with NCI-H460, 0.273 µM (active). Further, the GI50 was 0.31 µM (active) with LOX IMVI; 0.263 µM (active) in the assay with OVCAR-8; 0.766 µM (active) with SF-295; 1.38 µM (inactive) in the assay on OVCAR-3; 0.731 µM in the assay with HCT-15; 1.36 µM (inactive) in the assay on OVCAR-5.

As for `Cc1cc2c(=O)n(-c3ccc(F)cc3)c(C)nc2c(C(=O)O)c1C`, the GI50 with MOLT-4, with CCRF-CEM, in the assay with SN12C, in the assay with SK-MEL-2, in the assay with COLO 205 and with KM12 was > 100 µM (inactive) throughout. For the same molecule, the GI50 in the assay with SF-268, in the assay on HOP-62, with UACC-257, with ACHN, with NCI-H460 and in the assay on LOX IMVI was > 100 µM (inactive) throughout. Further, the GI50 was > 100 µM (inactive) in the assay with OVCAR-8; > 100 µM (inactive) in the assay on SF-295; > 100 µM (inactive) with OVCAR-3; over 100 µM in the assay with HCT-15; > 100 µM (inactive) in the assay on OVCAR-5.

Turning to `CC12C(=O)CC(CC1=O)C2(C)C`, the GI50 in the assay on MOLT-4, with CCRF-CEM, in the assay with NCI/ADR-RES, in the assay on SN12C, in the assay on SK-MEL-2 and in the assay on COLO 205 was > 100 µM (inactive) each time. The GI50 in the assay on KM12, with SF-268, in the assay on HOP-62, in the assay on UACC-257, in the assay with ACHN and in the assay with NCI-H460 was > 100 µM (inactive) in each case. Also, the GI50 was > 100 µM (inactive) in the assay on LOX IMVI; > 100 µM (inactive) with OVCAR-8; > 100 µM (inactive) in the assay on SF-295; > 100 µM (inactive) in the assay on OVCAR-3; over 100 µM in the assay on HCT-15; > 100 µM (inactive) with OVCAR-5.

As to `O=C(c1cc2ccccc2o1)N(Cc1ccccc1)c1ccccc1`, the GI50 in the assay on MOLT-4 was 16.6 µM (inactive); in the assay with CCRF-CEM, 13.6 µM (inactive); with SN12C, 18 µM (inactive); in the assay on SK-MEL-2 it was 33.8 µM (inactive); with COLO 205 it was 20.4 µM (inactive); with KM12 it was 20.6 µM (inactive). For the same molecule, the GI50 was 41.4 µM (inactive) in the assay with SF-268; 30.5 µM (inactive) with HOP-62; 20.3 µM (inactive) with UACC-257; 26.6 µM (inactive) in the assay on ACHN; 26.9 µM (inactive) in the assay with NCI-H460; 21 µM (inactive) with LOX IMVI. For the same molecule, the GI50 in the assay with OVCAR-8 was 22.9 µM (inactive); in the assay on SF-295 it was 34.4 µM (inactive); with OVCAR-3, 20.3 µM (inactive); with HCT-15, 18 µM; with OVCAR-5, 30.3 µM (inactive).

As to `O=C(Nc1ccc([N+](=O)[O-])cc1)C1C(=O)C(=O)N(c2ccc([N+](=O)[O-])cc2)C1=O` (stereo not drawn), the GI50 with MOLT-4 is > 100 µM (inactive); with CCRF-CEM it was > 100 µM (inactive); with SN12C it was > 100 µM (inactive); in the assay on SK-MEL-2, > 100 µM (inactive); in the assay on COLO 205 it was 35.8 µM (inactive); in the assay with KM12, > 100 µM (inactive). Further, the GI50 in the assay with SF-268 was > 100 µM (inactive); with HOP-62 it was > 100 µM (inactive); with UACC-257, > 100 µM (inactive); in the assay with ACHN it was 32.8 µM (inactive); in the assay on NCI-H460, 34.5 µM (inactive); in the assay on LOX IMVI, 16.1 µM (inactive). For the same molecule, the GI50 in the assay with OVCAR-8 is > 100 µM (inactive); in the assay on SF-295 it was 80.2 µM (inactive); with OVCAR-3, > 100 µM (inactive); with HCT-15 it was 61.1 µM; in the assay on OVCAR-5, > 100 µM (inactive).

With `COc1ccc2c(c1)C/C(=C\c1ccc(O)c(OC)c1)C2=O`, the GI50 in the assay with MOLT-4, in the assay with NCI/ADR-RES, in the assay with SN12C, with SF-268, in the assay on ACHN and with NCI-H460 was > 100 µM (inactive) each time. The GI50 is > 100 µM (inactive) in the assay with LOX IMVI; > 100 µM (inactive) with OVCAR-8; > 100 µM (inactive) in the assay with OVCAR-3; over 100 µM in the assay with HCT-15; > 100 µM (inactive) in the assay on OVCAR-5.

Take `Cc1c(-c2coc(-c3ccccc3)n2)c(=O)n(-c2ccccc2)n1C`: the GI50 is 25.6 µM (inactive) in the assay on MOLT-4; > 100 µM (inactive) with CCRF-CEM; > 100 µM (inactive) with SN12C; > 100 µM (inactive) in the assay on SK-MEL-2; 78.3 µM (inactive) with COLO 205; > 100 µM (inactive) with KM12. The GI50 in the assay on SF-268 is > 100 µM (inactive); in the assay on HOP-62 it was > 100 µM (inactive); in the assay with UACC-257, 49.7 µM (inactive); with ACHN it was > 100 µM (inactive); with NCI-H460, > 100 µM (inactive); in the assay with LOX IMVI, > 100 µM (inactive). The GI50 in the assay with OVCAR-8 is 44.6 µM (inactive); in the assay with SF-295, > 100 µM (inactive); in the assay with OVCAR-3, > 100 µM (inactive); with HCT-15 it was over 100 µM; in the assay on OVCAR-5, > 100 µM (inactive).

Take `CN1CCc2c1nc(-c1ccc([N+](=O)[O-])cc1)c1c2N(C)CC1`: the GI50 is 91.2 µM (inactive) in the assay on MOLT-4; > 100 µM (inactive) in the assay with CCRF-CEM; > 100 µM (inactive) in the assay with SN12C; > 100 µM (inactive) with SK-MEL-2; 54.6 µM (inactive) in the assay with COLO 205; 30.9 µM (inactive) with KM12. Besides, the GI50 in the assay with SF-268 is > 100 µM (inactive); in the assay with HOP-62 it was 86.7 µM (inactive); with UACC-257, > 100 µM (inactive); in the assay on ACHN, > 100 µM (inactive); with NCI-H460, > 100 µM (inactive); in the assay on LOX IMVI, 44.2 µM (inactive). Further, the GI50 in the assay with OVCAR-8 was > 100 µM (inactive); with SF-295 it was > 100 µM (inactive); in the assay with OVCAR-3, 8.15 µM (inactive); in the assay on HCT-15, 99.5 µM; in the assay with OVCAR-5 it was > 100 µM (inactive).
